The target of test [1] is T1, human histamine H3-receptor (Homo sapiens, UniProt Q9Y5N1).
T1 construct: purchased MDS Pharma Services (Taiwan) 239810
The experiment in a line: Human histamine H3-receptor binding assay, MDS Pharma Services (Taiwan), Catalogue No. 239810. Here is the method: Compounds of the invention were tested for their ability to bind to the human histamine H3-receptor using the MDS Pharma Services (Taiwan) assay, Catalogue No. 239810.

The subject of test [2] is male Sprague Dawley rats. The experiment in a line: Blockade of RAMH-induced drinking assay. The test is classed as in vivo. The conditions noted are these: rat, 0.3 mg/kg PO, RAMH 3 mg/kg SC, drinking 20 min. The protocol: When administered to rodents, H3 agonists such as R-α-methyl-histamine (RAMH) induce a drinking response that is sensitive to reversal with an H3 antagonist. Blockade of RAMH-induced drinking can therefore be utilized as an in vivo assay for functional H3 antagonist activity. In this assay, male Sprague Dawley rats (250-350 g) were housed three per cage and maintained under a reverse 12 h light cycle (lights off at 1130 h). At 1030 h on the day of test, rats were individually housed in new cages and food was removed. 120 min later, rats were administered test article (vehicle or H3 antagonist, 0.3 mg/kg PO). 30 min later, water was removed, and RAMH (vehicle or RAMH 3 mg/kg salt SC) was administered. 10 min after administration of RAMH, weighed water bottles were placed in the cages, and drinking was allowed for 20 min. Water consumption was determined for each animal by weighing each bottle to the nearest 0.1 g. Data is expressed as percentage reduction in water intake according to the following formula:
[1−[(ANTAGONIST/RAMH)−(VEHICLE/RAMH)/(VEHICLE/RAMH)−(VEHICLENEHICLE)]]*100

In test [3] the test system is Male Sprague-Dawley rats. The experiment in a line: Rat polysomnography (EEG/EMG wakefulness). The test is classed as in vivo. The conditions noted are these: over 1 h after oral administration at 0.6 mg/kg. Here is the method: Animals: Male Sprague-Dawley rats (225-350 g) (Harlan, San Diego, Calif.) were singly housed and maintained in a humidity—(30-70%) and temperature—(20-22° C.) controlled facility on a 12 h:12 h light/dark cycle (lights on at 6:30 A.M.) with free access to food (Harlan-Teklad Western Res., Orange, Calif., Rodent Diet 8604) and water. Rats were allowed at least three days of habituation to the animal facility before surgery.
Rats were anaesthetized with a ketamine/xylazine mixture, and surgically prepared for
EEG and EMG recording. After 2-3 weeks of post-surgical recovery, rats were habituated to polypropylene test cages for at least three days. On test days, the rats were placed in the test chambers and habituated overnight. At 10 am the next day, the rats were administered the test compound, connected to the recording apparatus, and placed back into the test chambers for 3 h.
EEG and EMG data were digitized and stored in 10 s epochs over the three hour test period. […] […] Percent increase in wakefulness was then derived for each rat.

Test [4] addresses Histamine H3-receptor (Rattus norvegicus, UniProt Q9QYN8). The experiment in a line: [3H]N-alpha-methyl-histamine competitive histamine H3-receptor binding assay (rat brain cortex membranes). Conditions: whole rat brain cortex membranes, [3H]-N-α-methyl-histamine 1 nM. Here is the method:
The histamine receptor binding assay was conducted using standard laboratory procedures as described below. A crude membrane fraction was prepared from whole rat brain cortex using a polytron to homogenize the tissue followed by differential centrifugation in a HEPES-based buffer containing protease inhibitors. Membranes where frozen at −80° C. until needed. Frozen membranes were thawed and resuspended in ice-cold assay buffer consisting of 50 mM TRIS containing 5 mM EDTA (pH=7.4). 50 micrograms (μg) of membrane protein was added to each well of a 96-well assay plate along with test compound and [^3H]-N-α-methyl-histamine (1 nanomolar (nM) final assay concentration). Imetit was used as an assay positive control at varying concentrations. The plate was incubated for 30 min at room temperature. The assay was terminated by rapid filtration through a 96-well glass fiber filtration plate (GF/C) using a cell harvester (Perkin-Elmer). Captured membranes were washed three times with cold assay buffer and plates were dried at 50° C. 35 microliters (μL) of scintillation cocktail was added to each well and membrane-bound radioactivity was recorded using a TopCount 96-well plate scintillation counter (Perkin-Elmer).

Chain of Histamine H3-receptor (Q9QYN8 1-397 isoform Q9QYN8-3): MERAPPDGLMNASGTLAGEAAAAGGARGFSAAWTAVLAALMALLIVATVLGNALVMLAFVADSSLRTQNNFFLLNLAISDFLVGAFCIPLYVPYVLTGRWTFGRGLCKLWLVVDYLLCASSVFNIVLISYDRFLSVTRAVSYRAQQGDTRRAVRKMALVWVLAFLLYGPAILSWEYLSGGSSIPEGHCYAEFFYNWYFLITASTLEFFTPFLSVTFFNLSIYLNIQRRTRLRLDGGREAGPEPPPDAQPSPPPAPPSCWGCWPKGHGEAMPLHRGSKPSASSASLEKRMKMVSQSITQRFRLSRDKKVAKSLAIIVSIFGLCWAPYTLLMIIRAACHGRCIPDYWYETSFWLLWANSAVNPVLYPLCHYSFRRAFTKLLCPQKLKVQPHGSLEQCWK
T1 sequence (Q9Y5N1 whole entry): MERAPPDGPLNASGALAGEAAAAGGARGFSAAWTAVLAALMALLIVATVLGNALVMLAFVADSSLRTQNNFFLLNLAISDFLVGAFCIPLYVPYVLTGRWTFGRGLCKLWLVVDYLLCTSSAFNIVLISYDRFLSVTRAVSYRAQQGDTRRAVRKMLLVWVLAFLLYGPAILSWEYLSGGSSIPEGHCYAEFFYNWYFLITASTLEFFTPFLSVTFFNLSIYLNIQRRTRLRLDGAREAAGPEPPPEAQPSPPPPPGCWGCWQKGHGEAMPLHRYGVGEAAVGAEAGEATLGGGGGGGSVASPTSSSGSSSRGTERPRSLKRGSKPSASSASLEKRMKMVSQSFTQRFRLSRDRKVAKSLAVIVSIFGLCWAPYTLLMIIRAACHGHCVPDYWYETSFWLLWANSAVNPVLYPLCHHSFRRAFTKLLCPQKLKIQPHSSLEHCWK

`CCCS(=O)(=O)c1ccc(-c2ccc(CCN3CCC[C@H]3C)cc2)cc1` [Cmpd 5, (R)-2-Methyl-1-{2-[4′-(propane-1-sulfonyl)-biphenyl-4-yl]-ethyl}-pyrrolidine] gave an inhibitory constant (Ki) in test [1] of 3.7 nM. As for `CCS(=O)(=O)c1ccc(-c2ccc(CCN3CCC[C@H]3C)cc2)cc1` [Cmpd 2, (R)-1-[2-(4′-Ethanesulfonyl-biphenyl-4-yl)-ethyl]-2-methyl-pyrrolidine], in test [2], the “% inhibition of RAMH-induced drinking” value came out at 82.6 ± 12.9%.

Consider `C[C@@H]1CCCN1CCc1ccc(-c2ccc(S(=O)(=O)CCO)cc2)cc1` [Cmpd 10, 2-{4′-[2-((R)-2-Methyl-pyrrolidin-1-yl)-ethyl]-biphenyl-4-sulfonyl}-ethanol], for which the “% Increase in wakefulness +/− s.e.” value in test [3] is on record as 46 ± 15%. `COCCCS(=O)(=O)c1ccc(-c2ccc(CCN3CCC[C@H]3C)cc2)cc1` [Cmpd 8, (R)-1-{2-[4′-(3-Methoxy-propane-1-sulfonyl)-biphenyl-4-yl]-ethyl}-2-methyl-pyrrolidine]: in test [4], the Ki is 1.5 nM. That is a single-digit nanomolar value. As to `C[C@@H]1CCCN1CCc1ccc(-c2ccc3c(c2)C(=O)CCS3(=O)=O)cc1` [Cmpd 7, 6-{4-[2-((R)-2-Methyl-pyrrolidin-1-yl)-ethyl]-phenyl}-1,1-dioxo-1λ^6-thiochroman-4-one], the “% inhibition of RAMH-induced drinking” value in test [2] is reported as 92.5 ± 15.8%. In test [1], this compound registered an inhibition constant (Ki) of 2.9 nM. As to `COCCS(=O)(=O)c1ccc(-c2ccc(CCN3CCC[C@H]3C)cc2)cc1` [Cmpd 3, (R)-1-{2-[4′-(2-Methoxy-ethanesulfonyl)-biphenyl-4-yl]-ethyl}-2-methyl-pyrrolidine], the Ki in test [4] turned out to be 3 nM. Turning to `C[C@@H]1CCCN1CCc1ccc(-c2cccc(S(=O)(=O)CCO)c2)cc1` [Cmpd 17, 2-{4′-[2-((R)-2-Methyl-pyrrolidin-1-yl)-ethyl]-biphenyl-3-sulfonyl}-ethanol], the inhibition constant (Ki) in test [4] was determined as 16 nM. `C[C@@H]1CCCN1CCc1ccc(-c2ccc(S(=O)(=O)Cc3ccccc3)cc2)cc1` [Cmpd 6, (R)-2-Methyl-1-[2-(4′-phenylmethanesulfonyl-biphenyl-4-yl)-ethyl]-pyrrolidine] displayed a Ki in test [4] of 1.1 nM. Still for that read-out and setting: in the case of `C[C@@H]1CCCN1CCc1ccc(-c2ccc(S(C)(=O)=O)cc2)cc1` [Cmpd 1, (R)-1-[2-(4′-Methanesulfonyl-biphenyl-4-yl)-ethyl]-2-methyl-pyrrolidine] it was 2.4 nM. Turning to `C[C@@H]1CCCN1CCc1ccc(-c2ccc(S(=O)(=O)CCCO)cc2)cc1` [Cmpd 15, 3-{4′-(2-((R)-2-Methyl-pyrrolidin-1-yl)-ethyl]-biphenyl-4-sulfonyl}-propan-1-ol], in test [2], the “% inhibition of RAMH-induced drinking” value came out at 58.8 ± 16.1%.

One may read the Ki as a dissociation constant, usually derived from enzyme kinetics or from competition with a known ligand. Higher therefore signals weaker binding.
